Data as given in patent US10533018B2, “Antimicrobial prochelators to target drug-resistant bacteria and methods of making and using the same” (Duke University, priority 2015, dated 2020).
Where two headings read alike, the source gives them in different places. Values belong to the molecule of their own block, whether it stands above or below them.

Key:
[1] = Calcein fluorescence assay for Cu competition; type: physicochemical; conditions: 2 μM calcein + 2.4 μM CuCl2, pH 7.4 PBS; 20 μM (10 equivalents) compound alone; 1 h
Protocol: FIG. 11: To solutions of 2 μM calcein in pH 7.4 PBS was added 2.4 μM CuCl2 and the samples were fully equilibrated at room temperature for 2 hours. Next, 20 μM TAT, 20 μM DB4-162, 0.1 units/mL β-lactamase were added and the fluorescence at 500 nm was recorded after one hour.
A calcein fluorescence assay for metal competition was utilized in order to evaluate the relative metal-binding affinity of DB4-51 compared to PT. The fluorescence intensity of the probe calcein is quenched by more than 90% upon binding Cu^2+. […] However, when incubated with 10 equivalents of DB4-51 and 0.1 units/mL Type III β-lactamase from Enterobacter cloacae, there is an 85% return in calcein fluorescence, which correlates well with the 90% return observed for PT itself at the same concentration.
FIG. 4: Relative Cu binding assay with DB4-51 and PT against calcein. Solutions of 2 μM calcein and 2.4 μM CuCl2 in pH 7.4 PBS were equilibrated at room temperature for 2 hours prior to addition of 20 μM PT, 20 μM DB4-51, and/or 0.1 units/mL β-lactamase (Bla).
The calcein assay was utilized in order to assess the relative copper chelating ability of the prochelator and TAT. The fluorescence emission of calcein is quenched by more than 90% in the presence of 1.2 equivalents of CuCl2 (FIG. 11). […] The addition of 0.1 units/mL β-lactamase alone has no effect on the quenched fluorescence signal of the Cu-calcein solution. […] However, when incubated with 10 equivalents of DB4-162 and 0.1 units/mL β-lactamase there is a 90% return in calcein fluorescence. […] While it is unclear why 10 equivalents of TAT are insufficient to out-compete calcein for copper, it may be related to the propensity of TAT to form other species in aqueous media.

[2] = test system: Methicillin-Resistant Staphylococcus aureus (MRSA); assay: microbe, parasite or virus in culture; type: cell-based; conditions: for IC50: Staphylococcus aureus
Excerpt: (§1) Bacterial culture reagents including LB broth (Lennox), agar-agar, ampicillin, and ceftriaxone were purchased from Sigma Aldrich Corp. The Escherichia coli (E. coli) K12 strain HB101 and pGLO E. coli transformation kit purchased from Bio-Rad Laboratories Inc. HB101 was transformed with the bla gene via the pGLO plasmid. The bla gene encodes for a TEM-1 β-lactamase that imparts penicillin resistance to the mutant E. coli K-12 strain (+Bla). Strains E. coli UTI89, [27] pCOM-GFP-transformed E. coli UTI89 (pCOM-GFP), [28] and Methicillin-Resistant Staphylococcus aureus (MRSA) clone USA300 [29] have been previously described. The Extended-Spectrum β-Lactamase (ESBL) E. coli, Klebsiella pneumonia (Klebs), and Pseudomonas aeruginosa (Pseudo) strains were clinical isolates acquired deidentified from Duke Hospital and tested for antibiotic susceptibility in the Clinical Microbiology Laboratory using standard clinical susceptibility methods.
(§2) Cultures were incubated on LB (Lennox, Sigma) agar at 37° C. in ambient atmospheric composition. Before beginning an experiment, a single bacterial colony grown on LB agar was resuspended in 2 mL LB broth and incubated overnight to form a turbid cell suspension. The overnight culture was diluted 1:100 in LB and used immediately as the working culture. To assess the antibacterial activity of compounds, the working bacterial culture was aliquoted in a clear, flat-bottomed, 96-well polystyrene plate (Costar) and the compound of interest was added in 2-fold serial dilution from 500 to 1 μM. Plates were covered with a breathable sealing film (Aeroseal, Genesee Scientific) and incubated at 37° C. in ambient atmospheric composition with shaking at 200 rpm. Optical density at 600 nm was recorded after 4 h and 20 h for each well using a standard OD600 protocol with LB serving as the blank. The resulting dose-response curves were fit to a nonlinear regression in GraphPad Prism Version 6 to calculate the IC50 of DB4-51 in each strain.
(§3) The ability of DB4-162 to inhibit bacterial growth was assessed by a traditional broth microdilution method that assesses the turbidity of liquid cultures in the presence of varying concentrations of the compound. As described above for DB4-51, the antibacterial properties of the prochelator DB4-162 were assessed in non-pathogenic lab-strain HB101K-12 E. coli and compared to the pGLO-transfected mutant HB101K-12 E. coli that express β-lactamase. Clinically relevant pathogenic bacteria were also screened, including UTI89 E. coli, pCOM transfected UTI89 E. coli (pCOM), extended spectrum β-lactamase (ESBL) E. coli, methicillin-resistant Staphylococcus aureus (MRSA), and Klebsiella pneumonia (Klebs). In addition to being naturally resistant to many β-lactam antibiotics, MRSA can produce a number of β-lactamases. […] It should be noted that all of the bacteria tested are gram-negative except for gram-positive MRSA.
(§4) The goal of this screen was to calculate the IC50 of the prochelator in a series of pathogenic bacteria and compare these values to the IC50 of known antibiotics in those same strains to determine the relative effectiveness of DB4-162 against the drug-resistant and drug-susceptible bacteria in comparison to current antibiotic treatment options. Bacterial growth was monitored in LB broth at 37° C. in the presence and absence of DB4-162 for 20 hours. A concentration gradient of DB4-162 from 500 to 0 μM was used to screen all 7 strains of bacteria and the dose-response curves were fit to a […] to calculate the IC50 of DB4-162 in each strain. These IC50 values are an approximation of how effectively DB4-162 inhibits the growth of each bacterial strain in vitro.
(§5) IC50 values for ampicillin were calculated via broth microdilution in LB broth only. Values are listed as the mean followed by the 95% confidence interval about the mean. Mean and confidence intervals were calculated from a variable slope, nonlinear regression fit to the dose-response OD600 data. […]

pCOM E. coli = assay: microbe, parasite or virus in culture; type: cell-based, Escherichia coli; conditions: Escherichia coli, pCOM E. coli
Excerpt: as §1, §2, §3, §4, §5

+Bla K-12 E. coli = assay: microbe, parasite or virus in culture; type: cell-based, Escherichia coli; conditions: for IC50: Escherichia coli, +Bla K-12 E. coli
Excerpt: as §1, §2, §3, §4, §5

ESBL E. coli = assay: microbe, parasite or virus in culture; type: cell-based, Escherichia coli; conditions: Escherichia coli, ESBL E. coli; LB broth
Excerpt: as §1, §2, §3, §4, §5

−Bla K-12 E. coli = assay: microbe, parasite or virus in culture; type: cell-based, Escherichia coli; conditions: for IC50: Escherichia coli, −Bla K-12 E. coli, read-out: IC50
Excerpt: as §1, §2, §3, §4, §5

[3] = test system: Klebsiella pneumonia (Klebs); assay: Broth microdilution growth inhibition (OD600); type: cell-based; conditions: for IC50: Klebsiella pneumoniae
Excerpt: as §1, §2, §3, §4, §5

UTI89 E. coli = assay: Broth microdilution growth inhibition (OD600); type: cell-based, Escherichia coli; conditions: for IC50: Escherichia coli, UTI89 E. coli
Excerpt: as §1, §2, §3, §4, §5

[4] = test system: clinical isolates of Klebsiella pneumonia (Klebs); assay: Broth microdilution in Klebs clinical isolates; type: cell-based; conditions: Klebsiella pneumoniae, LB broth, read-out: IC50
Excerpt: as §1, §2

[5] = test system: susceptible E. coli HB101 K-12 (no β-lactamase); assay: Broth microdilution (preliminary, Table 1), susceptible K-12; type: cell-based, Escherichia coli; conditions: Escherichia coli; Susceptable K-12 E. coli; LB; OD600; preliminary results
Protocol: (§6) In order to determine the antibiotic activity of DB4-51, a debilitated strain of Escherichia coli (HB101 K-12) was transformed with the pGLO plasmid from Bio-Rad in order to express β-lactamase. This transformation was confirmed by growing on a selective medium containing 100 μg/ml ampicillin in Lennox LB with 1.5% agar. A broth microdilution assay was employed to determine the relative activity of DB4-51 against susceptible (HB 101 K-12, no β-lactamase) and resistant (HB 101 K-12 transformed to express β-lactamase) E. coli. Using Lennox LB as the medium. serial dilutions of the test compounds were performed in a 96-well plate and then inoculated with E. coli before incubating for 16-20 hours at 35° C. The bacterial growth was monitored by recording each well's absorbance at 600 nm (OD600.) The OD600 values of E. coli suspensions incubated with various compounds were compared in order to assess their activities.
(§7) FIG. 7: OD600 of susceptible and resistant K-12 E. coli cultures against DB4-51 and known antibiotics as a function of concentration. Ampicillin has a penicillin core and cephalexin has a cephalosporin core. Cultures were grown in LB broth at 37° C. while shaking at 200 rpm for 18 hours and then diluted to an OD600 of 0.005 before adding the compounds. Plates were grown at 35° C. while shaking at 200 rpm and the OD600 was recorded after 18 hours.
(§8) Table 1: Calculated IC50 values for DB4-51, cephalexin, ampicillin, and pyrithione. These values were derived by fitting the data to a log dose-response curve and reporting the concentration corresponding to half the maximum OD600 value for each compound.

[6] = test system: resistant E. coli HB101 K-12 transformed to express β-lactamase; assay: microbe, parasite or virus in culture; type: cell-based, Escherichia coli; conditions: Escherichia coli
Protocol: as §6, with “Using Lennox LB as the medium. serial dilutions of the test compounds were performed in a 96-well plate and then inoculated with E. coli before incubating for 16-20 hours at 35° C.” left out
as §7, with “Plates were grown at 35° C. while shaking at 200 rpm and the OD600 was recorded after 18 hours.” left out
as §8

E. coli = type: cell-based; conditions: high concentrations (>125 μM)
Excerpt: Further evidence for the influence of bioavailable copper on the IC50 of DB4-51 was obtained by using a checkerboard assay. […] Serial dilutions of DB4-51 in LB were arrayed against dilutions of chelator (BCS and EDTA). The antagonism exists between our prochelator, DB4-51, and the strong, extracellular chelators BCS and EDTA. […] However, at lower concentrations, EDTA works antagonistically with DB4-51 by restoring bacterial growth. This trend further underscores the influence that copper and potentially other metals have on the growth inhibitory activity of DB4-51.

Structure (SMILES): Cc1csc(=S)n1O [TAT, 3-hydroxy-4-methyl-2(3H)-thiazolethione]
- return in calcein fluorescence [1]: 30%
- IC50 ([2]; LB + 10 μM CuCl2): 10 µM
- IC50 ([2]; LB + 500 μM BCS): 29 µM
- IC50 ([2]; LB broth): 23 µM
- IC50 (pCOM E. coli; LB + 10 μM CuCl2): 7 µM
- IC50 (pCOM E. coli; LB + 500 μM BCS): 28 µM
- IC50 (pCOM E. coli; LB broth): 6 µM
- IC50 (+Bla K-12 E. coli; LB + 10 μM CuCl2): 38 µM
- IC50 (+Bla K-12 E. coli; LB + 500 μM BCS): 70 µM
- IC50 (+Bla K-12 E. coli; LB broth): 36 µM
- IC50 (ESBL E. coli): 41 µM
- IC50 (−Bla K-12 E. coli; LB + 10 μM CuCl2): 36 µM
- IC50 (−Bla K-12 E. coli; LB + 500 μM BCS): 70 µM
- IC50 (−Bla K-12 E. coli; LB broth): 23 µM
- IC50 ([3]; LB + 10 μM CuCl2): 26 µM
- IC50 ([3]; LB + 500 μM BCS): 51 µM
- IC50 ([3]; LB broth): 14 µM
- IC50 (UTI89 E. coli; LB + 10 μM CuCl2): 9 µM
- IC50 (UTI89 E. coli; LB + 500 μM BCS): 38 µM
- IC50 (UTI89 E. coli; LB broth): 6 µM

- IC50 ([4]; Klebs Isolate 1): 0.4 µM
- IC50 ([4]; Klebs Isolate 2): 0.7 µM
- IC50 ([4]; Klebs Isolate 3): 2 µM
- IC50 ([4]; Klebs Isolate 4): 1 µM
- IC50 ([4]; Klebs Isolate 5): 0.1 µM
- IC50 ([4]; Klebs Isolate 6): 0.3 µM
- IC50 ([4]; Klebs Isolate 7): 0.3 µM
- IC50 ([4]; Klebs Isolate 8): 0.1 µM
- IC50 ([4]; Klebs Isolate 9): 73 µM
- IC50 ([4]; Klebs Isolate 10): 0.03 µM
- IC50 ([4]; Klebs Isolate 11): 0.01 µM
- IC50 ([4]; Klebs Isolate 12): 0.1 µM
- IC50 ([4]; Klebs Isolate 13): 1 µM
Structure (SMILES): CO/N=C(\C(=O)N[C@@H]1C(=O)N2C(C(=O)O)=C(CSc3nc(=O)c(=O)[nH]n3C)CS[C@H]12)c1csc(N)n1 [Ceftriaxone]

Structure (SMILES): [Cl][Cu][Cl] [CuCl2]
- reduction of growth ([2]; concentrations up to 500 μM): less than 20%
- increase of growth (+Bla K-12 E. coli; K-12 E. coli (+Bla), 10 μM supplemental CuCl2): 5-20%
- increase of growth (−Bla K-12 E. coli; K-12 E. coli (−Bla), 10 μM supplemental CuCl2): 5-20%
- reduction of growth ([3]; concentrations up to 500 μM): less than 20%
- reduction of growth (UTI89 E. coli; UTI89, concentrations up to 500 μM): less than 20%

Structure (SMILES): CC1=C(C(=O)O)N2C(=O)[C@@H](NC(=O)[C@H](N)c3ccccc3)[C@H]2SC1 [Cephalexin]
- IC50 [5]: 26 µM
- IC50 [6]: 33 µM

Structure (SMILES): O=C(O)CN(CCN(CC(=O)O)CC(=O)O)CC(=O)O [EDTA, Ethylenediaminetetraacetic acid]
- effect on bacterial growth (E. coli): some inhibition of bacterial growth
